According to patent US11723886B2, “Targeting ocular diseases with novel APE1/Ref-1 inhibitors” (Indiana University Research and Technology Corporation, priority 2018, dated 2023):
Entries after “also recorded” stand apart in the source; their conditions may differ.

How the values were obtained:
[1] = target: Ref-1/APE1 endonuclease activity (Homo sapiens, UniProt P27695); conditions: cited from earlier work
[2] = tested on: APE1 repair activity in neurons; conditions: cited from earlier work
[3] = tested on: NF-κB and HIF-1α activity; conditions: retinal pigment epithelial cells; concomitant reduction in VEGF expression; cited from earlier work
[4] = tested on: total vessel density and VEGF expression; conditions: stroke in type one diabetes mellitus rats; cited from earlier work
[5] = tested on: laser-induced choroidal neovascularization; conditions: delivered intravitreally; cited from earlier work
[6] = tested on: retinal and choroidal endothelial cells; conditions: cited from earlier work
[7] = tested on: retinal neovascularization; conditions: delivered intravitreally; cited from earlier work
[8] = tested on: laser-induced choroidal neovascularization

Chain of Ref-1/APE1 endonuclease activity (P27695 whole entry): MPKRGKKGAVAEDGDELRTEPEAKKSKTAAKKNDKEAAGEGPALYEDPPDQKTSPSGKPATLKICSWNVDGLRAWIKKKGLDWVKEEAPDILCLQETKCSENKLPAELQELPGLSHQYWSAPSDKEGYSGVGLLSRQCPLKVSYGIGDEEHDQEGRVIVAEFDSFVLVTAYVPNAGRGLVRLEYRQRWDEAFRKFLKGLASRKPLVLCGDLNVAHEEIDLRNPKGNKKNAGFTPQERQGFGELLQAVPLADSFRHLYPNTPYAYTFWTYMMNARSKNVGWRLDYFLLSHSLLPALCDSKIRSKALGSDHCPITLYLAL

CCCCCCCCC/C(=C\C1=C(C)C(=O)C(OC)=C(OC)C1=O)C(=O)O [APX3330]
effect on endonuclease / APE1 activity [1]: does not affect the protein's endonuclease activity; also recorded: do not inhibit APE1 activity
APE1 repair activity in neurons [2]: can enhance APE1 repair activity
NF-κB and HIF-1α activity [3]: reduced both NF-κB and HIF-1α activity
total vessel density and VEGF expression [4]: significantly decreased total vessel density and VEGF expression
neovascularization, L-CNV [5]: reduced neovascularization
in vitro angiogenesis (proliferation, migration, tube formation) [6]: block in vitro angiogenesis
neovascularization, VLDLR knockout mouse [7]: reduced neovascularization
intraocular or systemic toxicity in vivo ([8]; i.p. dosing in L-CNV mice): not observed obvious intraocular or systemic toxicity
L-CNV volume ([8]; i.p., 50 mg/kg twice daily, 5 days on/two days off, two weeks): significantly reduced L-CNV volume
